Measured values published in patent US20120219638A1, “Method and Compositions for Treating Plant Infections” (priority 2006, published 2012).

What was measured:
[1] = system: Erwinia amylovora (fire blight); assay: Fire blight field trial on apple trees, one spray at full bloom: disease incidence and severity; type: in vivo; details: for Disease incidence (# of trees): standard, concentration not given, one spray at full bloom
Description: Experimental design: Three cultivars, 8 treatments and four blocks. In each block there is one tree per cultivar per treatment (four trees per cultivar per treatment). Treatments are randomized within each cultivar in each block.
When the forecast predicts favorable conditions, treatments were applied within 24-48 hours. Note: Oxysilver compound was a mixture of oxysilver bisulphate and oxysilver nitrate, with oxysilver bisulphate as the dominant compound.
(§1) Three apple varieties (Gala, Fuji, and Golden) were treated with one spray of oxysilver at full-bloom. There were a total of eight treatments: 1. Untreated control, 2. Streptomycin standard, 3. Oxytetracycline standard, 4. Oxysilver compound 0.005% (w/v), 5. Oxysilver compound 0.05%, 6. Oxysilver compound 0.1%, 7. Oxysilver compound 0.5%, and 8. Oxysilver compound 1.0%. The trees were evaluated once a week for disease severity and phytotoxicity. Apples were harvested. Each treatment and variety combination was repeated four times. Disease incidence through blossom infections was monitored. Infections four weeks or so after bloom are not due to blossom infections and are not typically treated by growers.
(§2) Disease incidence was recorded as the number of trees showing infections per treatment. Disease severity was rated as follows: 0—No disease, 1—One—two infected shoots, 2—Two-four infected shoots, 3—Four or more infected shoots or one systemic canker, 4—Two or more systemic cankers. […] After harvest, apples from untreated trees and trees treated with 0.005% and 1% oxysilver compound were sent to an independent lab for testing of silver accumulation in the fruit. For comparison, oxysilver compound was sprayed directly on some apples.
(§3) Statistical analysis was done using SAS 9.3 Proc glimmix and Proc GLM.

[2] = system: apple varieties (Gala, Fuji, and Golden); assay: Phytotoxicity of leaf and fruit on treated apple trees; type: in vivo; details: standard, concentration not given; for Phytotoxicity (leaf) (average): rating 0 (none) to 4 (50-100% of leaf area necrotic); for Phytotoxicity (fruit) (average): rating 0 (none) to 4 (severe deformation)
Description: as §1, §2, §3

Compound	Disease incidence (# of trees) [1]	Phytotoxicity (leaf) (average) [2]	Phytotoxicity (fruit) (average) [2]	Disease severity compared with untreated control ([1]; all oxysilver treatments and streptomycin standard, p=0.05, systemic cankers in untreated control)
CN(C)[C@@H]1C(O)=C(C(N)=O)C(=O)[C@@]2(O)C(O)=C3C(=O)c4c(O)cccc4[C@@](C)(O)[C@H]3[C@H](O)[C@@H]12 [Oxytetracycline, oxytetracycline]	1 ab # of trees	0 c	0 c	–
[H]/N=C(/N)N[C@H]1[C@H](O)[C@@H](O)[C@H](O[C@@H]2O[C@@H](C)[C@](O)(C=O)[C@H]2O[C@@H]2O[C@@H](CO)[C@H](O)[C@@H](O)[C@@H]2NC)[C@@H](N/C(N)=N\[H])[C@@H]1O [Streptomycin, streptomycin]	1 ab # of trees	0 c	0 c	significantly higher in the untreated control
